Values quoted from earlier work, collected in patent publication US11696905B2, “Ready-to-use tranexamic acid intravenous solution” (Boulevard Patience et Beaujonc Nº3/1, priority 2018, dated 2023).

Columns and labels:
[1] = oral administration
[2] = four doses of 10-20 mg per kg body weight 36-48 hours before surgery

## NC[C@H]1CC[C@H](C(=O)O)CC1 [Tranexamic acid, trans-4-(aminomethyl)cyclohexanecarboxylic acid]
[1]
  absorption from the human gastrointestinal tract: 40%
[2]
  time antifibrinolytically active concentration remained in the serum: 7 to 8 h
  time antifibrinolytically active concentration remained in the tissues investigated: up to 17 hours
In vivo
  antifibrinolytically active concentration: 10 µg/mL
